Each structure is given as a SMILES string.

For the molecule `O=S(=O)(c1ccc(Nc2nccc(N3CCc4cc(F)ccc43)n2)cc1)N(CCN1CCCC1)C1CCNCC1` [Example 1, 4-[4-(5-Fluoro-2,3-dihydroindol-1-yl)pyrimidin-2-ylamino]-N-piperidin-4-yl-N-(2-pyrrolidin-1-yl-ethyl)benzenesulphonamide], the melting point (usually the temperature of the solid-liquid transition) is 269.5 °C.
To `O=S(=O)(c1ccc(Nc2nccc(N3CCc4cc(F)ccc43)n2)cc1)N(CCN1CCCC1)C1CCN(C2CC2)CC1` [Example 2, N-(1-Cyclopropylpiperidin-4-yl)-4-[4-(5-fluoro-2,3-dihydroindol-1-yl)pyrimidin-2-ylamino]-N-(2-pyrrolidin-1-ylethyl)benzenesulphonamide] belongs 215.4 °C; to `O=S(=O)(c1ccc(Nc2nccc(N3CCc4cc(F)ccc43)n2)cc1)N(CCN1CCCC1)C1CCN(CCCC(F)(F)F)CC1` [Example 3, 4-[4-(5-Fluoro-2,3-dihydroindol-1-yl)-pyrimidin-2-ylamino]-N-(2-pyrrolidin-1-ylethyl)-N-[1-(4,4,4-trifluorobutyl)piperidin-4-yl]benzenesulphonamide], 198 °C; to `O=S(=O)(c1ccc(Nc2nccc(N3CCc4cc(F)ccc43)n2)cc1)N(CCN1CCCC1)C1CCN(Cc2ccsc2)CC1` [Example 4, 4-[4-(5-Fluoro-2,3-dihydroindol-1-yl)pyrimidin-2-ylamino]-N-(2-pyrrolidin-1-ylethyl)-N-(1-thiophen-3-ylmethylpiperidin-4-yl)benzenesulphonamide], 140 °C.
In turn, `Cn1cccc1CN1CCC(N(CCN2CCCC2)S(=O)(=O)c2ccc(Nc3nccc(N4CCc5cc(F)ccc54)n3)cc2)CC1` [Example 5, 4-[4-(5-Fluoro-2,3-dihydroindol-1-yl)-pyrimidin-2-ylamino]-N-[1-(1-methyl-1H-pyrrol-2-ylmethyl)piperidin-4-yl]-N-(2-pyrrolidin-1-ylethyl)benzenesulphonamide] had a melting point of 94 °C.
To `O=S(=O)(c1ccc(Nc2nccc(N3CCc4cc(F)ccc43)n2)cc1)N(CCN1CCCC1)C1CCN(CCC(F)(F)F)CC1` [Example 6, 4-[4-(5-Fluoro-2,3-dihydroindol-1-yl)-pyrimidin-2-ylamino]-N-(2-pyrrolidin-1-ylethyl)-N-[1-(3,3,3-trifluoropropyl)piperidin-4-yl]benzenesulphonamide] belongs 147 °C; to `O=S(=O)(c1ccc(Nc2nccc(N3CCc4cc(F)ccc43)n2)cc1)N(CCN1CCCC1)C1CCN(CC(F)(F)F)CC1` [Example 7, 4-[4-(5-Fluoro-2,3-dihydroindol-1-yl)-pyrimidin-2-ylamino]-N-(2-pyrrolidin-1-ylethyl)-N-[1-(2,2,2-trifluoroethyl)piperidin-4-yl]benzenesulphonamide], 139.3 °C.
To `O=S(=O)(c1ccc(Nc2nccc(N3CCc4cc(F)ccc43)n2)cc1)N(CCN1CCCC1)C1CCOCC1` [Example 8, 4-[4-(5-Fluoro-2,3-dihydroindol-1-yl)pyrimidin-2-ylamino]-N-(2-pyrrolidin-1-ylethyl)-N-(tetrahydropyran-4-yl)benzenesulphonamide] belongs 100 °C.
